Measured values taken from patent US7582797B2, “Derivatives of 4,4′-dithiobis-(3-aminobutane-1-sulfonates) and compositions comprising the same” (Institute National de la Sante et de la Recherche Medicale …, priority 2003, dated 2009).

Biological target: T1, recombinant aminopeptidase A (UniProt P16406)
T1 sequence (P16406 1-945): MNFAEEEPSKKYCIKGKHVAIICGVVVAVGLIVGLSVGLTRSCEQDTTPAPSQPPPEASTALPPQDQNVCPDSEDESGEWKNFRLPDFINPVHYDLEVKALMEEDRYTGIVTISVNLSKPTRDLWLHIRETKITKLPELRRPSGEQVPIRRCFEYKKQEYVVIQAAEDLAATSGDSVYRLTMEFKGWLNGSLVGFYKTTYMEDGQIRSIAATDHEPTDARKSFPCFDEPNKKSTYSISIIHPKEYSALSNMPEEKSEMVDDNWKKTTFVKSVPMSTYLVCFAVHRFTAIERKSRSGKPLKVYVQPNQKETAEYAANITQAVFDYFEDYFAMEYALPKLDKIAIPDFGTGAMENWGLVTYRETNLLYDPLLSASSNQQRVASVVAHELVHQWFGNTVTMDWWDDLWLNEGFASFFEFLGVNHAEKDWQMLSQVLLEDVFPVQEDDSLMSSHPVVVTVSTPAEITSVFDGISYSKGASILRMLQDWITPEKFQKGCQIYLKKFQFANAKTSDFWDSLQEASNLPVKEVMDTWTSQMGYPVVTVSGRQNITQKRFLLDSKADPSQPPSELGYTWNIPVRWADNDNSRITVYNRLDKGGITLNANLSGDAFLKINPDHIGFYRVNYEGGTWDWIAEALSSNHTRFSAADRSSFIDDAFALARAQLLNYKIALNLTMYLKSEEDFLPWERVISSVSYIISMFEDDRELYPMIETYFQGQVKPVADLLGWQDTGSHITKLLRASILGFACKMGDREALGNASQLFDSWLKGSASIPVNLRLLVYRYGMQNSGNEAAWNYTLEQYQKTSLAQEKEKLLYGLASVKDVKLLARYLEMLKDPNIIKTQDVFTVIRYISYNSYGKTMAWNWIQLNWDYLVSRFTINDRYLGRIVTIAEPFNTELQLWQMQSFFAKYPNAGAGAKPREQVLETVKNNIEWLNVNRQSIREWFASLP
Assay: Determination of the inhibition constants with respect to APA (GluβNa hydrolysis, microplate assay)
Type: biochemical
Settings: for Ki: recombinant APA, 200 μM GluβNa, pH 7.4 Tris-HCl, 4 mM CaCl2, 37° C.
Method: The compounds 5 were tested, in vitro, on recombinant aminopeptidase A in order to determine their affinity for APA.
The assaying of APA activity is based on the protocol of Goldberg, adapted to the microplate assay scale (Pro Bind® 3915) (Chauvel et al., J. Med. Chem., 1994, 37, 1339-1346).
In vitro, in the presence of calcium ions, APA hydrolyzes α-L-glutamyl-β-naphthylamide (gluβNa) to glutamate and β-naphthylamine (βNa). A diazotization reaction in an acidic medium makes it possible to visualize the β-naphthylamine by formation of a violet-colored complex: spectrophotometric measurement then makes it possible to determine the amount of complex formed and, by reference to a standard curve produced with increasing concentrations of β-naphthylamine, to deduce therefrom the enzymatic activity of the sample.
The GluβNa substrate and the β-naphthylamine (Bachem) are solubilized in dimethyl sulfoxide and 0.1N HCl, respectively, and conserved at −20° C. at a concentration of 10^−2M. The diazotization reaction is carried out in the presence of sodium nitrite (87 mM), of ammonium sulfamate (130 mM) and of N-(1-naphthyl)ethylenediamine dihydrochloride (23 mM).
The reaction takes place at pH 7.4 in 50 mM Tris-HCl buffer, in the presence of calcium (4 mM CaCl2); the sample to be assayed is incubated at 37° C. in the presence of a substrate (200 μM GluβNa) and in the presence or absence of various concentrations of the inhibitor to be tested, in a final volume of 100 μl. The reaction is stopped by the addition of 10 μl of 3N HCl. A standard curve for β-naphthylamine in an acidic medium (addition of 10 μl of 0.1N HCl) is produced in parallel.
The following are added to each well:
25 μl of sodium nitrite (mix, wait 5 min at ambient temperature),
50 μl of ammonium sulfamate (stir, wait 5 min at ambient temperature), then
25 μl of 23 mM N-(1-naphthyl)ethylenediamine dihydrochloride (mix, wait for the violet color to stabilize for approximately 30 min at 37° C.).
The absorbance is subsequently measured at 540 nm.
The compound EC 33 ((S)-3-amino-4-mercaptobutylsulfonic acid) described in application WO 99/36066), a monomer of the compound RB 150 (4,4′-dithiobis-3-aminobutane-1-sulfonic acid) described in application WO 2004/007441, was used as a reference compound.

Row | Compound | Ki | APA-inhibiting activity greater than that of the reference compound (EC 33) by a factor (relative to EC 33) | inhibitory activity compared with the reference compound (EC 33) (relative to EC 33)
1 | CC(S)C(N)CCS(=O)(=O)O (stereo not shown) [Compound 5a, 3-Amino-4-mercaptopentane-1-sulfonic acid] | > 100000 nM |  | 
2 | NC(CCS(=O)(=O)O)C(S)c1ccccc1 (stereo not shown) [Compound 5b, 3-Amino-4-mercapto-4-phenylbutane-1-sulfonic acid] | 8000 nM |  | 
3 | CC(C)CC(S)C(N)CCS(=O)(=O)O (stereo not shown) [Compound 5c, 3-Amino-4-mercapto-6-methylheptane-1-sulfonic acid] | 4000 nM |  | 
4 | NC(CCS(=O)(=O)O)C(S)Cc1ccccc1 (stereo not shown) [Compound 5d, 3-Amino-4-mercapto-5-phenylpentane-1-sulfonic acid] | 380 nM |  | of the same order as or greater than that of the reference compound
5 | N[C@H](CCS(=O)(=O)O)[C@@H](S)CCc1ccccc1 [Compound 5e1, (3R,4S)-3-Amino-4-mercapto-6-phenylhexane-1-sulfonic acid] | 1920 nM |  | 
6 | N[C@@H](CCS(=O)(=O)O)[C@H](S)CCc1ccccc1 [Compound 5e3, (3S,4R)-3-Amino-4-mercapto-6-phenylhexane-1-sulfonic acid] | 1040 nM |  | 
7 | N[C@H](CCS(=O)(=O)O)[C@H](S)CCc1ccccc1 [Compound 5e4, (3R,4R)-3-Amino-4-mercapto-6-phenylhexane-1-sulfonic acid] | 840 nM |  | 

Compounds with a lower Ki, results first:

Row | Ki | APA-inhibiting activity greater than that of the reference compound (EC 33) by a factor (relative to EC 33) | Compound | inhibitory activity compared with the reference compound (EC 33) (relative to EC 33)
8 | 304 nM |  | N[C@H](CS)CCS(=O)(=O)O [EC 33, (S)-3-amino-4-mercaptobutylsulfonic acid, reference compound] | 
9 | 110 nM |  | NC(CCS(=O)(=O)O)C(S)CCc1ccc(Br)cc1 (stereo not shown) [Compound 5h, 3-Amino-4-mercapto-6-(4-bromophenyl)hexane-1-sulfonic acid] | of the same order as or greater than that of the reference compound
10 | 96 nM |  | COc1ccccc1CCC(S)C(N)CCS(=O)(=O)O (stereo not shown) [Compound 5g, 3-Amino-4-mercapto-6-(2-methoxyphenyl)hexane-1-sulfonic acid] | of the same order as or greater than that of the reference compound
11 | 92 nM |  | COc1ccc(CCC(S)C(N)CCS(=O)(=O)O)cc1 (stereo not shown) [Compound 5f, 3-Amino-4-mercapto-6-(4-methoxyphenyl)hexane-1-sulfonic acid] | of the same order as or greater than that of the reference compound
12 | 80 nM |  | NC(CCS(=O)(=O)O)C(S)CCc1ccccc1 (stereo not shown) [Compound 5e, 3-Amino-4-mercapto-6-phenylhexane-1-sulfonic acid] | of the same order as or greater than that of the reference compound
13 | 30 nM | 10 | N[C@@H](CCS(=O)(=O)O)[C@@H](S)CCc1ccccc1 [Compound 5e2, (3S,4S)-3-Amino-4-mercapto-6-phenylhexane-1-sulfonic acid] | 
